Data as given in patent publication US8648103B2, “Nitrogen-containing aromatic heterocyclyl compound” (Daiichi Sankyo Company, Limited, priority 2008, dated 2014).
pIC50: −log10 of the molar value.

Test system: Human subcutaneous adipocytes
Test: Adipocyte lipolysis assay (suppression of isoproterenol-stimulated fatty acid release)
Assay type: cell-based
Details: Homo sapiens, Adipocyte; test compound concentration giving 50% fatty acid concentration reduction percentage in culture supernatant; 1 μM isoproterenol, 5 hours incubation; reduction by 100 μM nicotinic acid set at 100%
Source text: The suppressive or promoting activity of a test compound on the lipolysis of neutral fat can be assayed according to an adipocyte lipolysis assay as a cell line assay. If a beta adrenoceptor is stimulated with isoproterenol or the like in adipocytes, lipolysis action in which neutral fat accumulated in the cells is decomposed into fatty acid and glycerol can be promoted, and as a result, the amount of such fatty acid or glycerol released out of the cells can be increased. When a test compound that suppresses lipolysis is added to adipocytes, lipolysis-promoting action by isoproterenol stimulation is reduced, and the concentration of fatty acid or glycerol in a medium is decreased. Accordingly, the suppressive activity of a test compound on lipolysis can be assayed by measuring the reduction percentage of the fatty acid concentration or glycerol concentration in a culture supernatant. Likewise, the promoting activity of a test compound on lipolysis can be assayed by measuring the increase percentage of the fatty acid concentration or glycerol concentration in a medium.
• (1) Human subcutaneous adipocytes disseminated onto a 96 well (Dainippon Sumitomo Pharma Co., Ltd.: F-SA-1096) • (2) Adipocyte Maintenance Medium (Dainippon Sumitomo Pharma Co., Ltd.: AM 1) • (3) Lipolysis assay buffer [137 mM NaCl, 5 mM KCl, 4.2 mM NaHCO3, 1.3 mM CaCl2, 0.5 mM KH2PO4, 0.5 mM MgCl2, 0.5 mM MgSO4, 5 mM Glucose, 20 mM Hepes (pH 7.4), 1% BSA, 1 μM Isoproterenol] • (4) NEFA-C Test Wako (Wako Pure Chemical Industries, Ltd.) Preparation of Screening Materials
In this operation, the actual concentration of the test compound in the buffer was 1/1000 of the above-described concentration.
The above-described subcutaneous adipocytes were cultured in 200 μL of an Adipocyte Maintenance Medium in each well for 7 days. During this culturing operation, the medium was exchanged with a fresh one every 3 days. The medium was exchanged by discarding 100 μL of the medium in each well and then adding 100 μL of a fresh Adipocyte Maintenance Medium to the well. Thereafter, the adipocytes were washed with a Lipolysis assay buffer. Subsequently, 50 μL of a Lipolysis assay buffer that contained the above-described test compound was added to each well, and it was then incubated for 5 hours. In order to obtain the measurement value of the test compound in each concentration, 5 wells on a 96-well plate were used with respect to each concentration. As a positive control of a compound having lipolysis suppressive activity, nicotinic acid was used with reference to a previous report [Green A et. al., J. Biol. Chem., 1992, 267(5), 3223-9].
40 μL of a culture supernatant was extracted from each well, and the fatty acid concentration in the supernatant was then measured. Such fatty acid concentration was measured as follows, using the above-described NEFA-C Test Wako. 80 μL of liquid A included in the kit was added to 40 μL of the culture supernatant extracted from each well, and the obtained mixture was then incubated at 37° C. for 10 minutes. Thereafter, 160 μL of liquid B was added, and the obtained mixture was further incubated at 37° C. for 10 minutes. Thereafter, the absorbance at a wavelength of 550 nm was measured. At the same time, a standard fatty acid solution included in the kit was diluted to prepare a dilution series having a volume of 40 μL. According to the same operations as described above, liquid A and liquid B were added, and the absorbance was then measured. In accordance with instructions included with the kit, a calibration curve was prepared. Based on the thus prepared calibration curve, the fatty acid concentration in the culture supernatant was calculated. The reduction percentage of the fatty acid concentration was calculated with the following formula, setting the reduction percentage obtained by addition of 100 μM (final concentration) of nicotinic acid at 100%. […]

| pIC50 | SMILES |
| --- | --- |
| 6.86 | CCn1cc(NC(=O)CCc2noc(-c3ccc(O)cc3)c2C(F)(F)F)c(C(=O)O)c1 [Example 53, 4-{3-[4-Trifluoromethyl-5-(4-hydroxyphenyl)isoxazol-3-yl]propanoyl}amino-1-ethylpyrrole-3-carboxylic acid] |
| 7.54 | CCn1cc(NC(=O)C(F)Cc2cnc(-c3ccc(O)cc3)s2)c(C(=O)O)c1 (racemic) [Example 22, 4-{3-[2-(4-Hydroxyphenyl)thiazol-5-yl]-2-fluoropropanoyl}amino-1-ethylpyrrole-3-carboxylic acid] |
| 6.82 | Cn1cc(NC(=O)CCc2cnc(-c3ccc(O)c(Cl)c3)s2)c(C(=O)O)c1 [Example 10, 4-{3-[2-(3-Chloro-4-hydroxyphenyl)thiazol-5-yl]propanoyl}amino-1-methylpyrrole-3-carboxylic acid] |
| 7.55 | CCn1cc(NC(=O)C(F)Cc2cc(-c3ccc(O)cc3)no2)c(C(=O)O)c1 (stereo not drawn) [Example 62, 4-{3-[3-(4-Hydroxyphenyl)isoxazol-5-yl]-2-fluoropropanoyl}amino-1-ethylpyrrole-3-carboxylic acid] |
| 7.40 | CCn1cc(NC(=O)C(F)(F)Cc2cnc(-c3ccc(O)cc3)s2)c(C(=O)O)c1 [Example 39, 4-{3-[2-(4-Hydroxyphenyl)thiazol-5-yl]-2,2-difluoropropanoyl}amino-1-ethylpyrrole-3-carboxylic acid] |
| 7.03 | CCn1cc(NC(=O)CCc2cnc(-c3ccc(O)cc3C)s2)c(C(=O)O)c1 [Example 19, 4-{3-[2-(4-Hydroxy-2-methylphenyl)thiazol-5-yl]propanoyl}amino-1-ethylpyrrole-3-carboxylic acid] |
| 7.12 | Cn1cc(NC(=O)CCc2sc(-c3ccc(O)cc3)nc2Cl)c(C(=O)O)c1 [Example 8, 4-{3-[4-Chloro-2-(4-hydroxyphenyl)thiazol-5-yl]propanoyl}amino-1-methylpyrrole-3-carboxylic acid] |
| 7.66 | CCCn1cc(NC(=O)CCc2cc(-c3ccc(O)cc3)no2)c(C(=O)O)c1 [Example 61, 4-{3-[3-(4-Hydroxyphenyl)isoxazol-5-yl]propanoyl}amino-1-propylpyrrole-3-carboxylic acid] |
| 8.05 | COCCCn1cc(NC(=O)CCc2cnc(-c3ccc(O)cc3)s2)c(C(=O)O)c1 [Example 18, 4-{3-[2-(4-Hydroxyphenyl)thiazol-5-yl]propanoyl}amino-1-(3-methoxypropyl)pyrrole-3-carboxylic acid] |
| 7.06 | CCCCn1cc(NC(=O)CCc2cnc(-c3ccc(O)cn3)o2)c(C(=O)O)c1 [Example 11, 4-{3-[2-(5-Hydroxypyridin-2-yl)oxazol-5-yl]propanoyl}amino-1-butylpyrrole-3-carboxylic acid] |
| 7.54 | CCn1cc(NC(=O)CCc2nc(-c3ccc(O)cc3)no2)c(C(=O)O)c1 [Example 12, 4-{3-[3-(4-Hydroxyphenyl)-1,2,4-oxadiazol-5-yl]propanoyl}amino-1-ethylpyrrole-3-carboxylic acid] |
| 8.40 | CCn1cc(NC(=O)CCc2onc(-c3ccc(O)cc3)c2C)c(C(=O)O)c1 [Example 38, 4-{3-[(4-Hydroxyphenyl)-4-methylisoxazol-5-yl]propanoyl}amino-1-ethylpyrrole-3-carboxylic acid] |
| 5.96 | Cn1cc(NC(=O)CCc2ccc(-c3ccc(O)cc3)cc2)c(C(=O)O)c1 [Example 1, 4-{3-[4-(4-Hydroxyphenyl)phenyl]propanoyl}amino-1-methylpyrrole-3-carboxylic acid] |
| 8.70 | O=C(CCc1nc(-c2ccc(O)cn2)no1)Nc1cn(Cc2cc(F)cc(F)c2)cc1C(=O)O [Example 15, 4-{3-[(5-Hydroxypyridin-2-yl)-1,2,4-oxadiazol-5-yl]propanoyl}amino-1-(3,5-difluorobenzyl)pyrrole-3-carboxylic acid] |
| 7.40 | CCn1cc(NC(=O)CCc2cnc(-c3ccc(O)cc3)s2)c(C(=O)O)c1 [Example 13, 4-{3-[2-(4-Hydroxyphenyl)thiazol-5-yl]propanoyl}amino-1-ethylpyrrole-3-carboxylic acid] |
| 6.59 | O=C(CCc1cnc(-c2ccccc2)s1)Nc1cn(CCF)cc1C(=O)O [Example 14, 4-[3-(2-Phenylthiazol-5-yl)propanoyl]amino-1-(2-fluoroethyl)pyrrole-3-carboxylic acid] |
| 7.70 | CCn1cc(NC(=O)CCn2cnc(-c3ccccc3)c2C)c(C(=O)O)c1 [Example 24, 4-{3-(4-Phenyl-5-methylimidazol-1-yl)propanoyl}amino-1-ethylpyrrole-3-carboxylic acid] |
| 6.27 | Cn1cc(NC(=O)CCc2ccc3c(Cl)c(O)ccc3c2)c(C(=O)O)c1 [Example 2, 4-[3-(5-Chloro-6-hydroxy-2-naphthyl)propanoyl]amino-1-methylpyrrole-3-carboxylic acid] |
| 6.79 | CCn1cc(NC(=O)CCc2snc(-c3ccc(O)cc3)c2Cl)c(C(=O)O)c1 [Example 57, 4-{3-[4-Chloro-3-(4-hydroxyphenyl)isothiazol-5-yl]propanoylamino}-1-ethylpyrrole-3-carboxylic acid] |
| 8.00 | CCn1cc(NC(=O)C(F)Cc2cnn(-c3ccccc3)c2C)c(C(=O)O)c1 (stereo not drawn) [Example 26, 4-[2-Fluoro-3-(5-methyl-1-phenylpyrazol-5-yl)propanoyl]amino-1-ethylpyrrole-3-carboxylic acid] |
| 8.05 | CCc1c(-c2ccc(O)cc2F)noc1CCC(=O)Nc1cn(CC)cc1C(=O)O [Example 45, 4-{3-[4-Ethyl-3-(4-hydroxy-2-fluorophenyl)isoxazol-5-yl]propanoyl}amino-1-ethylpyrrole-3-carboxylic acid] |
| 8.10 | CCc1c(-c2ccc(O)cc2)noc1CCC(=O)Nc1cn(CC)cc1C(=O)O [Example 35, 4-{3-[4-Ethyl-(4-hydroxyphenyl)isoxazol-5-yl]propanoyl}amino-1-ethylpyrrole-3-carboxylic acid] |
| 7.31 | CCCCn1cc(C(=O)O)c(NC(=O)CCc2nc(-c3ccc(O)cn3)no2)n1 [Example 17, 5-{3-[(5-Hydroxypyridin-2-yl)-1,2,4-oxadiazol-5-yl]propanoyl}amino-2-butylpyrazol-4-carboxylic acid] |
| 7.89 | CCn1cc(NC(=O)C(F)Cc2sc(-c3ccc(O)cc3)nc2Cl)c(C(=O)O)c1 (stereo not drawn) [Example 37, 4-{3-[4-Chloro-2-(4-hydroxyphenyl)thiazol-5-yl]-2-fluoropropanoyl}amino-1-ethylpyrrole-3-carboxylic acid] |
| 6.00 | CC(C)n1cc(NC(=O)CCc2nc(-c3ccc(O)cn3)no2)c(C(=O)O)c1 [Example 48, 4-{3-[3-(5-Hydroxypyridin-2-yl)-1,2,4-oxadiazol-5-yl]propanoyl}amino-1-isopropylpyrrole-3-carboxylic acid] |
| 6.63 | Cn1cc(NC(=O)CCc2cnc(-c3ccc(O)cc3)o2)c(C(=O)O)c1 [Example 4, 4-{3-[2-(4-Hydroxyphenyl)oxazol-5-yl]propanoyl}amino-1-methylpyrrole-3-carboxylic acid] |
| 7.54 | CCn1cc(NC(=O)C(F)(F)Cc2cc(-c3ccc(O)cc3)on2)c(C(=O)O)c1 [Example 64, 4-{3-[5-(4-Hydroxyphenyl)isoxazol-3-yl]-2,2-difluoropropanoyl}amino-1-ethylpyrrole-3-carboxylic acid] |
